# Measurements taken from patent US20210220374A1, “METHODS OF TREATING TE[…]” (Clarus Therapeutics, Inc., priority 2013, published 2021).
# Values joined by “and” are separate entries in the source; they are usually repeats but may differ in a detail not shown here. Equal entries are not always repeated.
# How the values were obtained:
# [1] = Optimal sampling time: pooled steady-state serum T data of LOT-AA and LOT-BB, 200 mg T BID as TU; format: in vivo, hypogonadal men
# Experimental: An investigation was conducted to identify a single optimal sampling time for monitoring the responsiveness of hypogonadal male patients subjects to chronic BID dosing of T using a SEDDS formulation of TU. Concentration data and derived pharmacokinetic parameters for 41 subjects from two studies (LOT-AA and LOT-BB) where subjects received 200 mg BID of T, as TU, for at least seven days were used in this investigation. Correlation and contingency table approaches were used in the investigation.
# Concentration data and pharmacokinetic parameters from hypogonadal male subjects that participated in study LOT-AA and study LOT-BB were combined into a single data set. From study LOT-AA, only the information from Day 7 of Treatment 3 (8 days of treatment with 200 mg BID of T, as TU) was used. Study LOT-AA contributed data from 26 subjects treated for 7 days, and study LOT-BBBB contributed data from 15 subjects treated for 28 days with 200 mg BID of T, as TU. Combining of the data from these two groups of subjects is supported by the finding from study LOT-BBBB that T steady-state is reached in 5-7 days.
# The sample collection times for these two studies both spanned a 12-hour window, but not all sample collection times were common to both studies. LOT-AA used sample collection times of 0, 1, 2, 4, 8 and 12 hours; LOT-BBBB used sample collection times of 0, 1.5, 3, 4, 5, 6, 8 and 12 hours. The current analysis used the superset of the combined set of collection times (0, 1, 1.5, 2, 3, 4, 5, 6, 8 and 12 hours). Concentration values that were missing for a subject in either of the data sets at a particular sample collection time were estimated by linear interpolation, using the existing nearest neighbor concentration values for that subject, i.e., interpolation of missing data was subject-specific.
# [2] = Example 1 single-day pharmacokinetic study of Formulation B; format: in vivo, hypogonadal men; conditions: 200 mg T equivalents BID with food
# Experimental: The study was designed as an open-label, single-day dosing, sequential, cross-over, pharmacokinetic study.
# The doses were administered as capsules to subjects five minutes after a meal (breakfast for QD, and breakfast and dinner for BID).
# [3] = LOT-AA subjects, estimated by linear interpolation
# [4] = LOT-BB subjects, estimated by linear interpolation
# [5] = targeted Cavg 300-1000, 41 subjects
smiles,measurement,setting,value
"CCCCCCCCCCC(=O)O[C@H]1CC[C@H]2[C@@H]3CCC4=CC(=O)CC[C@]4(C)[C@H]3CC[C@]12C [TU, testosterone undecanoate]","T concentration 3 hr, individual subjects",[1]; [3],777 ng/dL and 785 ng/dL and 590 ng/dL and 433 ng/dL and 984 ng/dL and 1030 ng/dL and 1345 ng/dL and 936 ng/dL and 164 ng/dL and 183 ng/dL and 193 ng/dL and 353 ng/dL and 844 ng/dL and 700 ng/dL and 411 ng/dL and 891 ng/dL and 438 ng/dL and 271 ng/dL and 243 ng/dL and 160 ng/dL and 415 ng/dL and 308 ng/dL and 1270 ng/dL and 918 ng/dL and 837 ng/dL and 546 ng/dL
same,"T concentration 5 hr, individual subjects",[1]; [3],978 ng/dL and 778 ng/dL and 686 ng/dL and 595 ng/dL and 865 ng/dL and 847 ng/dL and 1289 ng/dL and 886 ng/dL and 209 ng/dL and 248 ng/dL and 324 ng/dL and 311 ng/dL and 1065 ng/dL and 788 ng/dL and 418 ng/dL and 1012 ng/dL and 579 ng/dL and 427 ng/dL and 450 ng/dL and 205 ng/dL and 380 ng/dL and 503 ng/dL and 1533 ng/dL and 740 ng/dL and 768 ng/dL and 969 ng/dL
same,"T concentration 6 hr, individual subjects",[1]; [3],856 ng/dL and 606 ng/dL and 540 ng/dL and 590 ng/dL and 690 ng/dL and 653 ng/dL and 1048 ng/dL and 703 ng/dL and 232 ng/dL and 248 ng/dL and 423 ng/dL and 314 ng/dL and 789 ng/dL and 648 ng/dL and 415 ng/dL and 1145 ng/dL and 503 ng/dL and 539 ng/dL and 622 ng/dL and 216 ng/dL and 367 ng/dL and 639 ng/dL and 1296 ng/dL and 597 ng/dL and 588 ng/dL and 1283 ng/dL
same,"T concentration […], individual subjects",[1]; [3],371 ng/dL and 435 ng/dL and 297 ng/dL and 272 ng/dL and 632 ng/dL and 595 ng/dL and 845 ng/dL and 802 ng/dL and 162 ng/dL and 87 ng/dL and 150 ng/dL and 427 ng/dL and 214 ng/dL and 312 ng/dL and 454 ng/dL and 1081 ng/dL and 267 ng/dL and 241 ng/dL and 204 ng/dL and 116 ng/dL and 492 ng/dL and 237 ng/dL and 757 ng/dL and 654 ng/dL and 457 ng/dL and 403 ng/dL
same,"T concentration 1 hr, individual subjects","[1]; LOT-AA subjects, observed",287 ng/dL and 251 ng/dL and 246 ng/dL and 280 ng/dL and 335 ng/dL and 170 ng/dL and 530 ng/dL and 801 ng/dL and 183 ng/dL and 57 ng/dL and 140 ng/dL and 456 ng/dL and 80 ng/dL and 153 ng/dL and 506 ng/dL and 1260 ng/dL and 314 ng/dL and 256 ng/dL and 199 ng/dL and 105 ng/dL and 547 ng/dL and 225 ng/dL and 744 ng/dL and 354 ng/dL and 187 ng/dL and 368 ng/dL
same,"T concentration 2 hr, individual subjects","[1]; LOT-AA subjects, observed",454 ng/dL and 619 ng/dL and 347 ng/dL and 264 ng/dL and 928 ng/dL and 1020 ng/dL and 1160 ng/dL and 802 ng/dL and 140 ng/dL and 116 ng/dL and 159 ng/dL and 397 ng/dL and 348 ng/dL and 471 ng/dL and 402 ng/dL and 902 ng/dL and 219 ng/dL and 226 ng/dL and 208 ng/dL and 126 ng/dL and 437 ng/dL (2×) and 248 ng/dL and 770 ng/dL and 953 ng/dL and 726 ng/dL
same,"T concentration 1 hr, individual subjects",[1]; [4],545 ng/dL and 531 ng/dL and 279 ng/dL (2×) and 92 ng/dL and 152 ng/dL and 161 ng/dL and 234 ng/dL and 446 ng/dL and 869 ng/dL and 248 ng/dL and 365 ng/dL and 127 ng/dL and 233 ng/dL and 271 ng/dL
same,"T concentration 2 hr, individual subjects",[1]; [4],506 ng/dL and 725 ng/dL and 490 ng/dL and 149 ng/dL and 168 ng/dL and 394 ng/dL and 281 ng/dL and 812 ng/dL and 770 ng/dL and 461 ng/dL and 274 ng/dL and 166 ng/dL and 350 ng/dL and 346 ng/dL and 349 ng/dL
same,"T concentration 3 hr, individual subjects","[1]; LOT-BB subjects, observed",425 ng/dL and 778 ng/dL and 723 ng/dL and 243 ng/dL and 241 ng/dL and 873 ng/dL and 360 ng/dL and 1440 ng/dL and 684 ng/dL and 908 ng/dL and 179 ng/dL and 259 ng/dL and 553 ng/dL and 461 ng/dL and 445 ng/dL
same,"T concentration 5 hr, individual subjects","[1]; LOT-BB subjects, observed",486 ng/dL and 1020 ng/dL and 332 ng/dL and 125 ng/dL and 1230 ng/dL and 714 ng/dL and 1270 ng/dL and 1690 ng/dL and 514 ng/dL and 999 ng/dL and 214 ng/dL and 458 ng/dL and 1330 ng/dL and 289 ng/dL and 507 ng/dL
same,"T concentration 6 hr, individual subjects","[1]; LOT-BB subjects, observed",671 ng/dL and 1660 ng/dL and 292 ng/dL and 238 ng/dL and 828 ng/dL and 773 ng/dL and 972 ng/dL and 1340 ng/dL and 593 ng/dL and 538 ng/dL and 620 ng/dL and 351 ng/dL and 1420 ng/dL and 320 ng/dL and 441 ng/dL
same,"T concentration […], individual subjects","[1]; LOT-BB subjects, observed",547 ng/dL and 699 ng/dL and 374 ng/dL and 102 ng/dL and 132 ng/dL and 155 ng/dL and 242 ng/dL and 498 ng/dL and 813 ng/dL and 237 ng/dL and 321 ng/dL and 120 ng/dL and 249 ng/dL and 288 ng/dL and 301 ng/dL
same,"C(0), Max","[1]; serum T, N 41",1600 ng/dL
same,"C(0), Mean","[1]; serum T, N 41",363 ng/dL
same,"C(0), Median","[1]; serum T, N 41",244 ng/dL
same,"C(0), Min","[1]; serum T, N 41",61.0 ng/dL
same,"C(1), Max","[1]; serum T, N 41",1260 ng/dL
same,"C(1), Mean","[1]; serum T, N 41",338 ng/dL
same,"C(1), Median","[1]; serum T, N 41",271 ng/dL
same,"C(1), Min","[1]; serum T, N 41",57.3 ng/dL
same,"C(1.5), Max","[1]; serum T, N 41",1081 ng/dL
same,"C(1.5), Mean","[1]; serum T, N 41",391 ng/dL
same,"C(1.5), Median","[1]; serum T, N 41",312 ng/dL
same,"C(1.5), Min","[1]; serum T, N 41",86.6 ng/dL
same,"C(2), Max","[1]; serum T, N 41",1160 ng/dL
same,"C(2), Mean","[1]; serum T, N 41",466 ng/dL
same,"C(2), Median","[1]; serum T, N 41",397 ng/dL
same,"C(2), Min","[1]; serum T, N 41",116 ng/dL
same,"C(3), Max","[1]; serum T, N 41",1440 ng/dL
same,"C(3), Mean","[1]; serum T, N 41",600 ng/dL
same,"C(3), Median","[1]; serum T, N 41",546 ng/dL
same,"C(3), Min","[1]; serum T, N 41",160 ng/dL
same,"C(4), Max","[1]; serum T, N 41",1770 ng/dL
same,"C(4), Mean","[1]; serum T, N 41",745 ng/dL
same,"C(4), Median","[1]; serum T, N 41",720 ng/dL
same,"C(4), Min","[1]; serum T, N 41",127 ng/dL
same,"C(5), Max","[1]; serum T, N 41",1690 ng/dL
same,"C(5), Mean","[1]; serum T, N 41",708 ng/dL
same,"C(5), Median","[1]; serum T, N 41",686 ng/dL
same,"C(5), Min","[1]; serum T, N 41",125 ng/dL
same,"C(6), Max","[1]; serum T, N 41",1660 ng/dL
same,"C(6), Mean","[1]; serum T, N 41",673 ng/dL
same,"C(6), Median","[1]; serum T, N 41",606 ng/dL
same,"C(6), Min","[1]; serum T, N 41",216 ng/dL
same,"C(8), Max","[1]; serum T, N 41",1910 ng/dL
same,"C(8), Mean","[1]; serum T, N 41",537 ng/dL
same,"C(8), Median","[1]; serum T, N 41",367 ng/dL
same,"C(8), Min","[1]; serum T, N 41",225 ng/dL
same,"C(12), Max","[1]; serum T, N 41",757 ng/dL
same,"C(12), Mean","[1]; serum T, N 41",278 ng/dL
same,"C(12), Median","[1]; serum T, N 41",222 ng/dL
same,"C(12), Min","[1]; serum T, N 41",84.2 ng/dL
same,"Cavg, Max","[1]; serum T, N 41",1057 ng/dL
same,"Cavg, Mean","[1]; serum T, N 41",517 ng/dL
same,"Cavg, Median","[1]; serum T, N 41",454 ng/dL
same,"Cavg, Min","[1]; serum T, N 41",192 ng/dL
same,"Cmax, Max","[1]; serum T, N 41",1910 ng/dL
same,"Cmax, Mean","[1]; serum T, N 41",970 ng/dL
same,"Cmax, Median","[1]; serum T, N 41",951 ng/dL
same,"Cmax, Min","[1]; serum T, N 41",249 ng/dL
same,"Number of subjects, Cavg in range",[1]; [5],33
same,"Number of subjects, Cavg too high",[1]; [5],3
same,"Number of subjects, Cavg too low",[1]; [5],5
same,Subjects achieving a serum T Cavg above 300 ng/dL,[2],75%
